Test [1] deals with bovine aortic endothelial cell. Put plainly: bovine aortic endothelial cell growth assay (Baec assay). It counts as cell-based. The settings on record: Bos taurus, BAEC; read-out: IC50 (pM), Baec Assay. On the procedure: The angiogenesis inhibitor compounds of the invention were tested for their ability to modulate human endothelial cell growth and for their ability to modulate the activity of MetAP2. The MetAP2 enzyme assay was performed essentially as described in Turk, B. et al. (1999) Chem. & Bio. 6: 823-833, the entire contents of which are incorporated herein by reference. The bovine aortic endothelial cell growth assay (Baec assay) was performed essentially as described in Turk, B. et al. (supra), the entire contents of which are incorporated herein by reference.

In test [2] the test system is SU-DHL-16. Put plainly: Inhibition of GC derived B cell lymphoma lines in culture. It counts as cell-based. Conditions: Homo sapiens, SU-DHL-16, 120 h, read-out: Growth Inhibition Relative to Vehicle Control, GI50%.
Test [3] concerns Pfeiffer. The test is described as above. It is filed as cell-based.
Test [4] relates to D10. The test is described as above. It is filed as cell-based. Conditions: D10, FL.
Test [5] relates to human lymphoblast SR cells. Put plainly: Inhibition of SR cell line in culture, 3H-thymidine incorporation assay. It counts as cell-based. The procedure: […] Incubations were conducted for 3, 5 or 6 days after which cell proliferation relative to vehicle treatment was determined using a ^3H-thymidine incorporation assay. Medium was replaced and fresh drug was added on day 3 for the 5 and 6 day assays.

Test [6] concerns SR lymphoma tumor. Put plainly: In vivo efficacy in SR lymphoma cell tumors grown in mice. The procedure: SR lymphoma tumor cells were injected subcutaneously into SCID/NCr female mice. Tumors were measured using a caliper every 3-4 days beginning on day 12 post-implantation of tumor cells. Animals were weighed routinely on the same days as tumor measurments and monitored for clinical signs of any adverse, drug-related side effects. Treatment with Compound 5 or vehicle began on Day 12 for 5 weeks and ended on Day 44. The endpoints evaluated were optimal percent treated/control (% T/C) and tumor growth delay measured at multiple timepoints during the study.

Results on one molecule are retold here after patent US20050059585A1, “Methionine aminopeptidase-2 inhibitors and methods of use thereof” (Praecis Pharmaceuticals Inc., priority 2000, published 2005).

The structures appear in SMILES notation.

`CO[C@@H]1[C@H](OC(=O)N[C@@H](C(N)=O)C(C)C)CC[C@]2(CO2)[C@H]1[C@@]1(C)O[C@@H]1CC=C(C)C` [Example 5, (1-Carbamoyl-2-methyl-propyl)-carbamic acid-(3R, 4S, 5S, 6R )-5-methoxy-4-[(2R, 3R)-2-methyl-3-(3-methyl-but-2-enyl)-oxiranyl]-1-oxa-spiro[2.5]oct-6-yl ester]: the IC50 in test [1] was 46 pM. Further, the GI50 is 1.9 nM in test [2]; 0.27 nM in test [3] (Homo sapiens, read-out: Growth Inhibition Relative to Vehicle Control, GI50%); 0.42 nM in test [4] (B-cell, estimated, read-out: Growth Inhibition Relative to Vehicle Control, GI50%); 0.5 nM in test [5] (Homo sapiens, SR, 5 and 6 day assays). Further, the “Growth Inhibition Relative to Vehicle Control, Maximum Inhibition” value in test [3] (DLBCL, 0.01-100 nM, five or six days) is 54%; in test [4] (0.01-100 nM, five or six days) it was 59%. In addition, in test [5] (concentrations from 1-100 nM, relative to vehicle), the “inhibition of proliferation of the SR cell line” value is given as 59-75%. Also, the Maximal inhibition entry in test [5] (five or six days of exposure) is “greater than 90%”. For the same molecule, the “optimal % T/C” value in test [6] (oral route, 15 mg/kg) is on record as 48%; in test [6] (oral route, 30 mg/kg), 43%; in test [6] (subcutaneously, 15 mg/kg) it was 70%; in test [6] (subcutaneously, 30 mg/kg), 50%. Besides, the tumor growth delay in test [6] (orally, 15 mg/kg) stood at 29%; in test [6] (orally, 30 mg/kg) it was 28%; in test [6] (subcutaneous route, 15 mg/kg), 18%; in test [6] (subcutaneous route, 30 mg/kg), 19%.
